We go through two compounds from the NIST ThermoML archive (doi:10.1016/j.fluid.2014.07.010).

For the data set the following is noted: Liquid, Ebulliometric method (Recirculating still).

The structures appear in SMILES notation. Numbers after ± are expanded uncertainties.

For the compound `CCc1cccs1` [2-ethylthiophene], where the note is “407.15 K”, the vapor or sublimation pressure (in general, the pressure of vapour in equilibrium with the condensed phase) is reported as 101.33 ± 0.46 kPa.

On to `CCCCCCCC` [octane], for which the “vapor or sublimation pressure” value (398.57 K) is 101.33 ± 0.46 kPa.
